Experimental data: PMC6609550, “Blockade of the forward Na^+/Ca^2+ exchanger suppresses the growth of glioblastoma cells through Ca^2+‐mediated cell death” (British Journal of Pharmacology, 2019)

Legend:
human astrocytes = assay: Cell viability of human astrocytes; format: cell-based; details: 25 μM, 48 hr
Procedure: (§1) Cell viability was determined by using a Cell Counting Kit‐8 (Dojindo, Japan). Briefly, cells were harvested from flasks and plated in 96‐well cell culture plates at 5 × 10^3 per well and cultured overnight. Cells were treated with test reagents for 72 hr. Control cells were treated with cell culture medium and measured at the same time point as treatment groups. CCK‐8 solution (10 μl) was added to each well of the 96‐well plates, and the cultures were incubated for 30 min at 37°C. Absorbance at 450 nm was measured using an automatic microplate reader (Molecular Devices, San Jose, CA, USA).
Figure 8 Impact of bepridil on human astrocytes (HA) and the Na^+/Ca^2+ exchanger (NCX) isoforms in each cell line. (a) Viability of U87, U251, and SF188 cells and HA after exposure to bepridil (25 μM, 48 hr); n = 5 independent tests in each group. (b) The bands of NCX1, NCX2, and NCX3 isoforms detected by Western blot analysis in the sample of HA and glioblastoma cell lines U87, U118, A172, U251, and SF188. (c) Representative recording of the NCX currents in HA and glioblastoma cell lines. (d) Viability of U87, U251, and SF188 cells and HA after exposure to KB‐R7943 (25 μM, 48 hr). n = 5 independent tests in each group

U87 cells = assay: Cell cycle assay (PI staining, flow cytometry) of U87 cells; format: cell-based, Human; details: bepridil 25 μM 6–24 hr, CB‐DMB 3.5 μM 6–24 hr, KB‐R7943 25 μM 18 hr, BAPTA‐AM 10 μM 18 hr, CC‐930 10 μM, PD169316 10 μM 18 hr
Procedure: U87 cells were seeded in six‐well plates (Corning, Corning, NY, USA) with 1 × 10^6 cells per well and treated with NCX blockers, BAPTA‐AM, or MAPK inhibitors. Drug treatment was performed by the person who is blinded to the experimental groups. After treatment, cells were harvested in 15‐ml tubes and washed with cold sterile PBS. After being centrifuged, cells were fixed with 70% ethanol […] at 4°C for at least 1 hr. For propidium iodide (PI) staining, cells were washed one time with PBS and then were treated with ribonuclease A (RNase; 100 μg·ml^−1) for 30 min. PI (10 μg·ml^−1) was added, and stained cells were kept in the dark at 4°C until analysis. The number of cells analysed for each sample was 10,000 events. FACS analysis was performed using the Coulter CytoFlexS flow cytometer (Beckman Coulter, CA, USA), and the percentage of cells in the G0/G1, S, and G2/M phases was determined using cell cycle analysis software, ModFit LT 5.0 (Verity Software House, Topsham, ME, USA). For the apoptosis assay, cells were harvested and washed twice with cold PBS and resuspended at a density of 1 × 10^6 cells·ml^−1 in 100 μl of binding buffer containing 5 μl of Annexin V–FITC and 5 μl of PI working solution (100 μg·ml^−1). After incubation at room temperature for 15 min in the dark, 400 μl of binding buffer was added to each sample. Apoptosis was analysed by Coulter CytoFlexS flow cytometer (Beckman Coulter) for at least 10,000 events, and data were analysed with the software, CyExpert 2.0 (Beckman Coulter).

SF188 cells = assay: Cell viability assay (Cell Counting Kit-8), SF188; format: cell-based, Human; details: for Effect on viability of paediatric glioblastoma cell line SF188 (in words): 0–100 μM; for Effect on viability of paediatric glioblastoma cell line SF188 (in words) / IC50: 72 hr; for IC50: CCK-8, mean ± SEM
Procedure: as §1, with “Cells were treated with test reagents for 72 hr.” left out
Figure 2 Effect of the Na^+/Ca^2+ exchanger (NCX) blockers on viability of human glioblastoma cell lines. (a, b) Viability of adult glioblastoma cell lines (U87 and U251) after exposure to NCX blockers bepridil, KB‐R7943, SEA0400, SN‐6, or YM244769 at 0–100 μM for 72 hr. n = 5 independent tests per group. (c) Viability of paediatric glioblastoma cell line SF188 after 72‐hr incubation with the same NCX blockers at 0–100 μM. n = 5 independent tests per group. (d) For U87, U251, and SF188 cell lines, concentration of the NCX blockers required to produce half maximal inhibition (IC50: μM, mean ± SEM) of cell viability.

[Ca^2+]i in U87 cells = Ca2+ imaging (Fluo-4 AM) of U87 cells; format: cell-based, Human; details: for Effect on [Ca2+]i level in Ca2+-free solution / Effect on intracellular Ca2+ pool and ER Ca2+ transporting: Ca2+‐free solution; for Effect on intracellular Ca2+ pool and ER Ca2+ transporting: followed by 5‐μM thapsigargin; for Effect on [Ca2+]i level: solution containing 2‐mM Ca2+, bepridil or KB‐R7943 25 or 50 μM, CB‐DMB 2 and 4 μM
Procedure: Cells were cultured in 96‐well plates at 8 × 10^3 per well and loaded with the cell membrane‐permeable Ca^2+ dye Fluo‐4 AM (5 μM) in 100‐μl HEPES‐buffered solution for 50 min. The solution contained (mM): 135 NaCl, 3 KCl, 2 CaCl2, 1 MgCl2, 10 glucose, and 10 HEPES, supplemented with 1% FBS at pH 7.4. To prepare the Ca^2+‐free solution, 2‐mM CaCl2 was replaced with 1‐mM EGTA in the HEPES‐buffered solution. The 96‐well plate containing the Fluo‐4 AM‐loaded cells was mounted in a Leica TCS SP8 confocal system (Leica Microsystems, Wetzlar, Germany). The confocal microscope armed with 488‐nm laser light was employed to excite the dynamic fluorescent signals in time and synchronously, while test regents were added to cells. To do Na^+ imaging, Fluo‐4 AM was replaced with the cell membrane‐permeable Na^+ dye Asante NaTrium Green‐2 AM (ANG‐2 AM) at 5 μM, which was excited by 514‐nm laser light. Visual inspection and fluorescent imaging were carried out at room temperature. The imaging data were analysed with the software https://leica-las-af-lite.software.informer.com/ 2.5 (Leica). The imaging traces shown are representative of at least three separate experiments; 12–18 cells were imaged in each experiment.

Structure (SMILES) | Cytotoxicity in human astrocytes (viability) (human astrocytes) | Effect on cell cycle distribution, compound alone (U87 cells) | Effect on viability of paediatric glioblastoma cell line SF188 (in words) (SF188 cells) | Effect on growth (viability) of SF188 cells (SF188 cells; 25 μM, 48 hr) | IC50 (SF188 cells; Homo sapiens, SF-188) | Effect on [Ca2+]i level in Ca2+-free solution ([Ca^2+]i in U87 cells) | Effect on intracellular Ca2+ pool and ER Ca2+ transporting ([Ca^2+]i in U87 cells) | Effect on [Ca2+]i level ([Ca^2+]i in U87 cells) | IC50 (SF188 cells)
CC(C)COCC(CN(Cc1ccccc1)c1ccccc1)N1CCCC1 (stereo not drawn) [Bepridil, N‐benzyl‐N‐(3‐isobutoxy‐2‐pyrrolidin‐1‐yl‐propyl)aniline] | did not generate apparent cytotoxicity | reduced the cell fraction in S phase and increased cells in G0/G1 phase in a time‐dependent manner | suppressed by bepridil and KB‐R7943 in a dose‐dependent manner | markedly suppressed growth | 12.9 ± 1 µM | did not show [Ca^2+]i elevation or fluctuation | neither bepridil nor KB‐R7943 affect intracellular Ca^2+ pool and Ca^2+ transporting on the ER membrane | quick [Ca^2+]i increase and sustained [Ca^2+]i elevation | 
CS(=O)(=O)O.N=C(N)SCCc1ccc(OCc2ccc([N+](=O)[O-])cc2)cc1 [KB‐R7943, 2‐[4‐[(4‐nitrophenyl)methoxy]phenyl]ethyl ester carbamimidothioic acid methanesulfonate] | deleterious to astrocytes | caused G0/G1 arrest and apoptosis | suppressed by bepridil and KB‐R7943 in a dose‐dependent manner |  |  | did not show [Ca^2+]i elevation or fluctuation | neither bepridil nor KB‐R7943 affect intracellular Ca^2+ pool and Ca^2+ transporting on the ER membrane | a short [Ca^2+]i descent in the beginning and a slow [Ca^2+]i increases ensuing | 17.3 ± 1 µM
